One experiment addresses T1, IGS4B (Homo sapiens, UniProt Q9GZQ4, A395T/F315L/M388V/P383L/S298T).
T1 construct: expressed in transfected cells; host or cells: CHOGα16 (CHO cells stably expressing Gα16, Molecular Devices), transfected with IGS4-pcDNA3.1
Put plainly: FLIPR intracellular calcium mobilisation in CHOGα16-IGS4 cells (IGS4B). It counts as cell-based. Particulars: for maximal activation of IGS4B: comparison among the three neuromedin U isoforms; for IGS4-mediated calcium mobilisation in the FLIPR assay: range 10^−6–10^−12 M, IGS4B. Here is the method: (§1) A. Method and Materials for IGS-4 Transfected CHOGα16IGS4 cells.
(§2) The following materials were used in the experiments: Vector containing IGS4-DNA sequence (IGS4-pcDNA3.1); SuperFect Transfection Reagent (Qiagen): Nut-Mix F12 (Gibco) with 10% FCS, 0.028 mg/ml Gentamycin (Gibco); 0.22 mg/ml Hygromycin (Gibco).
(§3) Materials used for clone selection: Nut-Mix F12 with 10% FCS; 0.028 mg/ml Gentamycin; 0.22 mg/ml Hygromycin and 0.55 mg/ml Geneticin (Gibco).
The following method was applied: Transfection with SuperFect Transfection Reagent was carried out as described by the manufacturer (Qiagen). Cells were plated in 24-well plates to 50% confluence. Per well […] plasmid-DNA with 1 μl SuperFect Transfection Reagent was added. After 24 hours the medium was changed and transfected cell clones were selected by Geneticin-containing selection-medium. IGS4 expressing cell clones were characterized by RT-PCR and Northern Blot.
B. Method and Materials for FLIPR-Assay.
The method was performed as follows: Cells were seeded 24 hours or 48 hours prior to the experiment into black wall microplates. The cell density was […] cells/well for 48 hour incubation and […] cells/well for 24 hour incubation. All steps were done under sterile conditions.
In order to observe changes in intracellular calcium levels, cells must be ‘loaded’ with a calcium-sensitive fluorescent dye. This dye, called FLUO-4 (Molecular Probes) is excited at 488 nm, and emits light in the 500–560 nm range, only if a complex with calcium is formed. The dye was used at 4 μM final concentration. Pluronic acid was added to increase dye solubility and dye uptake into the cells. Probenicid, an anion exchange protein inhibitor, was added to the dye medium to increase dye retention in the cells.
The method was worked as follows: The 2 mM stock of dye was mixed with an equal volume of 20% (w/v) pluronic acid immediately before adding to the loading-Buffer. The growth-medium was aspirated out of the well without disturbing the confluent cell layer. 100 μl loading medium was dispensed into each well using a Multidrop (Labsystems). Cell were incubated in a 5% CO2, 37° C. incubator for 30 minutes. In order to calculate the, background fluorescence, some wells were not dye loaded. The background fluorescence in these wells results from autofluorescence of the cells. After dye loading, cell were washed three times with Wash-Buffer (automated Denley cell washer) to reduce the basal fluorescence to 20.000–25.000 counts above background. 100 l buffer was added and cell were incubated at 37° C. till start of the experiment. […]
The resulting CHOGα16-IGS4 cells were functionally screened on a Fluorometric Imaging Plate Reader (FLIPR) to measure mobilisation of intracellular calcium in response to putative peptide ligands. […]

Another experiment has as its target T2, IGS4A (Homo sapiens, UniProt Q9GZQ4, A395T).
T2 construct: expressed in transfected cells; host or cells: CHOGα16 (CHO cells stably expressing Gα16, Molecular Devices), transfected with IGS4-pcDNA3.1
Put plainly: FLIPR intracellular calcium mobilisation in CHOGα16-IGS4 cells (IGS4A). The class given is cell-based. The note with it: range 10^−6–10^−12 M. Here is the method:
as §1, §2, §3
The following method was applied: Transfection with SuperFect Transfection Reagent was carried out as described by the manufacturer (Qiagen). Cells were plated in 24-well plates to 50% confluence. Per well […] plasmid-DNA with 1 μl SuperFect Transfection Reagent was added. After 24 hours the medium was changed and transfected cell clones were selected by Geneticin-containing selection-medium. […]
The method was worked as follows: The 2 mM stock of dye was mixed with an equal volume of 20% (w/v) pluronic acid immediately before adding to the loading-Buffer. […] In order to calculate the, background fluorescence, some wells were not dye loaded. The background fluorescence in these wells results from autofluorescence of the cells. After dye loading, cell were washed three times with Wash-Buffer (automated Denley cell washer) to reduce the basal fluorescence to 20.000–25.000 counts above background. […]

For a further experiment, the system named is IGS4. Description: Basal intracellular cAMP in CHOGα16-IGS4 cells. It counts as cell-based, human. Particulars: 1 and 10 μM; data not shown.

T1 sequence (Q9GZQ4 whole entry S298T/F315L/P383L/M388V/A395T): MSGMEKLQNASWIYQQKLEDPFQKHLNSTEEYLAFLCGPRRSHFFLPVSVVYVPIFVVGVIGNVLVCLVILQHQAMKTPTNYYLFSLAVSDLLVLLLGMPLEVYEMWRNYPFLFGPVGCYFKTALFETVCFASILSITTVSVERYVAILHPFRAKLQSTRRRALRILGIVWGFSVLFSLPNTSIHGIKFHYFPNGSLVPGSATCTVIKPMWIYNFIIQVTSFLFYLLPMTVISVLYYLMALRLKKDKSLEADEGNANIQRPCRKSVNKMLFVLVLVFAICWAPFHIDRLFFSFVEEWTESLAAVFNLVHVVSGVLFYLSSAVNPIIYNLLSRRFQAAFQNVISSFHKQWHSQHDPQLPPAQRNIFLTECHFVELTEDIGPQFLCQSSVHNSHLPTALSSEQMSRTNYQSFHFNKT
T2 sequence (Q9GZQ4 whole entry A395T): as the sequence (Q9GZQ4 whole entry S298T/F315L/P383L/M388V/A395T) above, with T298S, L315F, L383P, V388M counted along it

As to neuromedin U-25, at IGS4B, the “maximal activation of IGS4B” value is listed as “same maximal activation” and the “IGS4-mediated calcium mobilisation in the FLIPR assay” value (from here on “IGS4-mediated calcium mobilisation”) is recorded as “induced specific IGS4-mediated calcium mobilisation”. In addition, the “IGS4-mediated calcium mobilisation” value at IGS4A is “induced specific IGS4-mediated calcium mobilisation”.
neuromedin U-8: on IGS4B, the “maximal activation of IGS4B” value is recorded as “same maximal activation” and the “IGS4-mediated calcium mobilisation” value is “induced specific IGS4-mediated calcium mobilisation”. Further, on IGS4A, the “IGS4-mediated calcium mobilisation” value is listed as “induced specific IGS4-mediated calcium mobilisation”. Also, the “basal levels of intracellular cAMP” value with IGS4 is “not modulated”.

The values above are taken from US7151165B2, “Antibodies immunospecific for a novel human G-protein coupled receptor family” (priority 1999, dated 2006).
